Reference: ChEMBL document CHEMBL1201862, “PubChem BioAssay data set” (2004)
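Tested at 5 concentrations; 48 h exposure; 96-well plates; endpoints linearly interpolated, else capped at highest concentration. GI50 is the concentration that inhibits growth by half.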 Activity calls are given as the source filed them. No stated cut-off is given here; in the data, active = GI50 up to about 1.1 µM and inactive = higher.

Experiments:
Assay in all cases: NCI anticancer screen, dose series, 48 h
A549 = system: A549
BT-549 = system: BT-549
CAKI-1 = system: CAKI-1
EKVX = system: EKVX
HCT-116 = system: HCT-116
HCT-15 = system: HCT-15
HL-60 = system: HL-60
HT-29 = system: HT-29
K562 = system: K562
MCF7 = system: MCF7
NCI-H226 = system: NCI-H226
NCI-H23 = system: NCI-H23
NCI-H460 = system: NCI-H460
NCI-H522 = system: NCI-H522
OVCAR-4 = system: OVCAR-4
OVCAR-8 = system: OVCAR-8
SF-295 = system: SF-295
SK-MEL-28 = system: SK-MEL-28
SN12C = system: SN12C
T47D = system: T47D

Row | Structure (SMILES) | GI50 (A549) | GI50 (BT-549) | GI50 (CAKI-1) | GI50 (EKVX) | GI50 (HCT-116) | GI50 (HCT-15) [µM] | GI50 (HL-60) | GI50 (HT-29) | GI50 (K562) | GI50 (MCF7) | GI50 (NCI-H226) | GI50 (NCI-H23) | GI50 (NCI-H460) | GI50 (NCI-H522) | GI50 (OVCAR-4) | GI50 (OVCAR-8) | GI50 (SF-295) | GI50 (SK-MEL-28) | GI50 (SN12C) | GI50 (T47D)
1 | CCC(=O)Nc1ccc(NS(=O)(=O)c2ccc(Cl)cc2)cc1 | > 100 µM (inactive) | > 100 µM (inactive) | 91.4 µM (inactive) | 39.8 µM (inactive) | > 100 µM (inactive) | > 100 | 28.2 µM (inactive) | > 100 µM (inactive) | 29.9 µM (inactive) | > 100 µM (inactive) | 19.5 µM (inactive) | > 100 µM (inactive) | > 100 µM (inactive) | > 100 µM (inactive) | 53.6 µM (inactive) | > 100 µM (inactive) | 45.4 µM (inactive) | > 100 µM (inactive) | > 100 µM (inactive) | > 100 µM (inactive)
2 | Nc1n[c-](N)[n+](=O)c(N)c1NCO | > 100 µM (inactive) | > 100 µM (inactive) | > 100 µM (inactive) | > 100 µM (inactive) | > 100 µM (inactive) | > 100 | > 100 µM (inactive) | > 100 µM (inactive) | > 100 µM (inactive) | > 100 µM (inactive) | > 100 µM (inactive) | > 100 µM (inactive) | > 100 µM (inactive) | > 100 µM (inactive) | > 100 µM (inactive) | > 100 µM (inactive) | > 100 µM (inactive) | > 100 µM (inactive) | > 100 µM (inactive) | > 100 µM (inactive)
3 | COc1ccc(N2C(=O)/C(=C/c3ccc(N(CCC#N)CCC#N)cc3C)N=C2c2cc([N+](=O)[O-])ccc2Cl)cc1 | 4.89 µM (inactive) | 53.2 µM (inactive) | 7 µM (inactive) | 14.5 µM (inactive) | 3.94 µM (inactive) | 3.84 | 3.62 µM (inactive) | 4.07 µM (inactive) | 2.62 µM (inactive) | 4.81 µM (inactive) | 17 µM (inactive) | 7.59 µM (inactive) | 4.5 µM (inactive) | 2.74 µM (inactive) | > 46.5 µM (inactive) | 5.33 µM (inactive) | 3.05 µM (inactive) | 11 µM (inactive) | 6.31 µM (inactive) | > 89.9 µM (inactive)
4 | CN1C/C(=C\c2cccs2)C2=NN(C)C(c3cccs3)C2C1 (stereo not given) | 89.3 µM (inactive) | > 100 µM (inactive) | > 100 µM (inactive) | > 100 µM (inactive) | 51.4 µM (inactive) | > 100 | 3.05 µM (inactive) | 61.1 µM (inactive) | 29.3 µM (inactive) | 75.5 µM (inactive) | > 100 µM (inactive) | > 100 µM (inactive) | 86.5 µM (inactive) | 81.3 µM (inactive) | 35.8 µM (inactive) | > 100 µM (inactive) | > 100 µM (inactive) | > 100 µM (inactive) | 95.7 µM (inactive) | 44.4 µM (inactive)
5 | COc1cc2cc(C(=O)N3C[C@H](CCl)c4c3cc(O)c3ccccc43)[nH]c2c(OC)c1OC | 0.252 µM (active) | 0.236 µM (active) | 0.789 µM (active) | 0.31 µM (active) | 0.147 µM (active) | 0.192 | < 0.01 µM (active) | 0.185 µM (active) | 0.25 µM (active) | 0.0335 µM (active) | 0.12 µM (active) | 0.0453 µM (active) | 0.042 µM (active) | 0.108 µM (active) | 0.261 µM (active) | 0.0942 µM (active) | 0.107 µM (active) | 0.267 µM (active) | 0.0133 µM (active) | 1.71 µM (inactive)
